Experimental findings from patent US20230338316A1, “ABBAPOLINS AS INHIBITORS AND DEGRADERS OF POLO-LIKE KINASES” (UNIVERSITY OF SOUTH CAROLINA, priority 2022, published 2023) are described below.

The subject of data set [1] is PC3 prostate cancer xenografts. The data set can be described thus: PC3 prostate cancer xenograft study. The data set is classed as in vivo, athymic nude mice. The procedure:
(§1) The efficacy of promising abbapolin compounds were tested in multiple cancer cell lines. […] To do so, athymic nude mice were injected in their flanks with 2.7×10^6 PC3 prostate cancer cells. After the tumors established at 13 days, 5-8 mice per group were treated with 6359 and 6369 daily for 5 days (M-F) for a total of 15 days. […] This is in agreement with the PLK1 degradation in the xenograft tumor.

The target in data set [2] is T1, PLK1 (Homo sapiens, UniProt P53350). The data set can be described thus: Cellular thermal shift assay (CETSA). It counts as cell-based. Also on record: endogenous in cells; host or cells: PC3 prostate cancer cells. Here is the method:
Cellular thermal shift assay (CETSA) was performed with PC3 cells cultured in RPMI medium supplemented with 10% FBS. For an initial determination of the melting profile of PLK1 AND PLK3, cells dispensed into 96-well PCR plates in the above medium (6000 cells/well in 50 μL) were subjected to temperature gradient (38-60° C.) for 10 min. […] Centrifugation was performed at 14000 rpm to sediment the denatured protein content. Supernatant was collected and subjected to SDS-PAGE, and immunodetection was performed using anti-PLK1 and anti-PLK3 antibodies. PLK1 and PLK3 bands were quantified on a LI-COR C-Digit Blot Scanner, and Tagg and Tagg values were calculated for both proteins. In subsequent experiments, cells were treated at increasing doses (3.0, 1.0, 0.3, 0.1, 0.03 μM) of inhibitors together with DMSO control, for 2 h. Cells were then subjected to heat shock at Tagg for 10 min, and unstable protein was removed by centrifugation step. Following immuno-blotting, bands of stable PLK1 and PLK3 were quantified, normalized to loading control and plotted using GraphPad Prism software. EC50 values for inhibitors were calculated. […] The EC50 of the peptides were determined from the curve fit of the dose response.

For a further data set, the target named is T2, PLK1 PBD (367-603) (Homo sapiens, UniProt P53350).
T2 construct: PLK1 PBD (367-603) and PLK3 PBD (335-646) proteins were obtained from BPS Biosciences Inc; purchased BPS Biosciences Inc. (San Diego, CA)
T2 sequence (P53350 367-603): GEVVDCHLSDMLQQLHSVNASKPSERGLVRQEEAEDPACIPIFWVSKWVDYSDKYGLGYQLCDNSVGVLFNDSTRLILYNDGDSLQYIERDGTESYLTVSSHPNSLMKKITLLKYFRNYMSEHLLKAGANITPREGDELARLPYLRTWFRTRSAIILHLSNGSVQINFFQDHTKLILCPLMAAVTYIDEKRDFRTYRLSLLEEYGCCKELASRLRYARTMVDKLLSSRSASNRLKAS
The data set can be described thus: Fluorescence polarization assay, PLK1 PBD. The data set is classed as binding. Particulars: Table 10; target not named at the place; read-out: in vitro binding IC50. The procedure: Materials were dissolved in DMSO (10 mM) and diluted from 10 nM to 600 μM (maximum of 6% DMSO tolerance in the assay). PLK1 PBD (367-603) and PLK3 PBD (335-646) proteins were obtained from BPS Biosciences Inc. (San Diego, CA); 17 ng PLK1 and 156 ng PLK3 were used per reaction. The fluorescein-tracer phospho-peptides (MAGPMQS[pT]PLNGAKK (SEQ ID NO: 1) for PLK1, and GPLATS[pT]PKNG (SEQ ID NO: 2) for PLK3) were used at a final concentration of 10 nM. Incubation was carried out at room temperature for 45 minutes. Fluorescence was measured using a DTX 880 plate reader and Multimode Analysis software (Beckman Coulter, Brea, CA). The polarization values in millipolarization (mP) units were measured at an excitation wavelength of 488 nm and an emission wavelength of 535 nm. Each data point was performed in triplicate for every experiment, and experiments were performed at least three times. An IC50 value for each compound was calculated from linear regression analysis of the plots.
On the technique in general: Fluorescence polarisation rises when a labelled molecule tumbles more slowly, as on binding a larger partner.

The subject of a further data set is HL-60(TB). The data set can be described thus: Single dose cell viability assay, HL-60(TB). It counts as cell-based. Particulars: HL-60(TB) (Leukemia), single dose 10 μM. The procedure:
(§2) Lead abbapolin compounds were tested in multiple cancer cell lines, including non-small cell lung cancer (NSCLC) cells, melanoma cells, colon cancer cells, central nervous system (CNS) cancer cells, prostate cancer cells, renal cancer cells, and breast cancer cells. Each of these cancer cells lines were sensitive to the lead abbapolin compounds in a cell viability assay, including 6184 (Table 3), 6277 (Table 4), 6279 (Table 5), 6355 (Table 6), 6359 (Table 7), 6369 (Table 8), and 6421 (Table 9).

The subject of the next data set is NCI-H522. The data set can be described thus: Single dose cell viability assay, NCI-H522. It counts as cell-based. The conditions noted are these: NCI-H522 (NSCLC), single dose 10 μM. Here is the method:
as §2

The nature of data set [3]: Tolerability in the PC3 xenograft study. It counts as in vivo, athymic nude mice. The procedure: as §1
In another data set the test system is RPMI-8226. The data set can be described thus: Single dose cell viability assay, RPMI-8226. It counts as cell-based. Particulars: RPMI-8226 (Leukemia), single dose 10 μM. The procedure:
as §2

Data set [4] has as its target T1, PLK1. The data set can be described thus: PLK1 degradation in SH-SY5Y cells. It counts as cell-based. Also on record: endogenous in cells. Here is the method:
(§3) Abbapolin compounds activity was evaluated in neuroblastoma cells. […] Further, abbapolins induced PLK1 degradation in SH-SY5Y cells (FIG. 14-16).

In data set [5] the test system is SH-SY5Y neuroblastoma cells overexpressing PLK1. The data set can be described thus: Cell viability assay in neuroblastoma cells. The data set is classed as cell-based. Here is the method:
as §3

The subject of the next data set is MOLT-4. The data set can be described thus: Single dose cell viability assay, MOLT-4. The data set is classed as cell-based. Particulars: MOLT-4 (Leukemia), single dose 10 μM. Here is the method: as §2
A further data set is described as follows: Solubility in PBS. It counts as physicochemical. The conditions noted are these: expressed as IP dose.
For another data set, the system named is apoptosis. Description: Cell cycle analysis and caspase apoptosis assay. Particulars: versus negative control. It counts as cell-based. The text has this:
Disclosed small molecule inhibitors can also encourage apoptosis.

The target of data set [6] is T1, PLK1. Description: PLK1 degradation in PC3 cells. Particulars: PC3 cell line, 24 hours. Also on record: endogenous in cells; host or cells: PC3 prostate cancer cells. The data set is classed as cell-based. The procedure:
For example, PC3 cells were treated with varying dosages of abbapolin 6369, and percent of PLK1 degradation was measured at 24 hours (FIGS. 8A-8B). HeLa cells were treated with 25 μM abbapolin 6369, and time points shown in the assay were 24 hours, 48 hours, and 72 hours (FIGS. 9A-9B). PC3 cells were treated with varying dosages of abbapolin 6329, and percent of PLK1 degradation was measured at 24 hours (FIGS. […]). HeLa cells were treated with varying dosages of abbapolin 6329, and time points shown in the assay were 24 hours, 48 hours, and 72 hours (FIGS. 11A-11B).

The subject of the next data set is CCRF-CEM. The data set can be described thus: Single dose cell viability assay, CCRF-CEM. It counts as cell-based. Particulars: CCRF-CEM (Leukemia), single dose 10 μM. Here is the method:
as §2

The subject of another data set is HOP-92. Description: Single dose cell viability assay, HOP-92. The data set is classed as cell-based. Particulars: HOP-92 (NSCLC), single dose 10 μM. Here is the method:
as §2

Where [7] appears, read: 6359 100 mg/kg oral, 6369 40 mg/kg IP, 15 days.

T1 sequence (P53350 whole entry): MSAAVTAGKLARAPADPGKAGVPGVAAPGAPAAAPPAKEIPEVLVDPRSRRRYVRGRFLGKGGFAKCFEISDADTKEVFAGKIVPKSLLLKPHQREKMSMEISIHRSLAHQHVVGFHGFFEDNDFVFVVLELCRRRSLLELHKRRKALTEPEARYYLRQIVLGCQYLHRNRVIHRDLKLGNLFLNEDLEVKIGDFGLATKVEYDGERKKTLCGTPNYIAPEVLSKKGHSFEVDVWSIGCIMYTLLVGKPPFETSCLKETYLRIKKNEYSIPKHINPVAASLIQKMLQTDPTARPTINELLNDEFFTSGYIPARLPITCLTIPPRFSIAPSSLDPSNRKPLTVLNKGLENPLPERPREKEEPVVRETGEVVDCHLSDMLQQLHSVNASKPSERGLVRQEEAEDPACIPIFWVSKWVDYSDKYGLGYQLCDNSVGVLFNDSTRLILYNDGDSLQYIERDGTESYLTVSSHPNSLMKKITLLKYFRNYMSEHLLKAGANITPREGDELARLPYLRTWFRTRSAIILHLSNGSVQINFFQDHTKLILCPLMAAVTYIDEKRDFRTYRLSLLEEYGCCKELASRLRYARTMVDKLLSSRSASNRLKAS

A word on the EC50: it is the concentration giving half of the maximal effect. By IC50 is commonly meant the concentration that gives 50% inhibition. With “3-(4-octylbenzamido)phenyl phosphate [compound 6369]”, the “growth of PC3 tumors” value in data set [1] (6359 100 mg/kg oral gavage, 6369 40 mg/kg IP, daily 5 days (M-F), total 15 days) is listed as “slow the growth of PC3 tumors”. Also, the “PLK1 loss in the xenograft tumor” value in [1] (isolated PC3 xenograft tumors) was “significantly more PLK1 loss compared to PBS and 6359”. The EC50 at PLK1 [2] amounted to 0.15 µM. Also, the values for the IC50 (on PLK1 PBD (367-603); in data set [5]) were 115 µM and 232 ± 55 µM, respectively. The “Cells Remaining (%)” value in the data set on HL-60(TB) was found to be 54.82%; with NCI-H522 it was 33.06%; with RPMI-8226, 39.13%; in the data set with MOLT-4, 58.19%; with CCRF-CEM, 24.97%; with HOP-92, 43.19%. In addition, the body weight result in [3] (setting [7]) was “no loss of body weight”. For the same substance, the tolerability / toxicity result in data set [3] (setting [7]) is on record as “well tolerated”. Besides, in data set [3] (P>0.05), the “change in liver, kidney, and prostate weight” value is “non-significant”. Further, the PLK1 degradation result at PLK1 [4] and at PLK1 [6] was “degradation of PLK1” in each case. For the same substance, the “limit of solubility in PBS” value in “Solubility in PBS” worked out at 40 mg/kg. Moreover, the levels of apoptosis result in the data set with apoptosis is given as “high levels of apoptosis”.
